Target: T1, M5 muscarinic receptor (Homo sapiens, UniProt P08912)
T1 sequence (P08912 1-532): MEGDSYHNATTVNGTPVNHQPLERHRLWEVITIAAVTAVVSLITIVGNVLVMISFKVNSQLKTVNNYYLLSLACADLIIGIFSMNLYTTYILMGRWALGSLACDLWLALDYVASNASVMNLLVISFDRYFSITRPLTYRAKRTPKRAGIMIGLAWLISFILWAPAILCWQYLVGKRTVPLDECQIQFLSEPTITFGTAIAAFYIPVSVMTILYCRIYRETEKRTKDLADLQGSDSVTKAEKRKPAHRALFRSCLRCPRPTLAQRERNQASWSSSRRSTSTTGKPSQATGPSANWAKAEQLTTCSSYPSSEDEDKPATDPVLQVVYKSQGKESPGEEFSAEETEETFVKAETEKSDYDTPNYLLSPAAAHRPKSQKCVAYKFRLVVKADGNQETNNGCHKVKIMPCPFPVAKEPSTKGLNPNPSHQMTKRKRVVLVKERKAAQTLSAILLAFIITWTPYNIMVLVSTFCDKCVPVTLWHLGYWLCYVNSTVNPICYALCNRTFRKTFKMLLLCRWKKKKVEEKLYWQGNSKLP
Test: accumulation of IPX, M5 CHO cells transfected with G15 (M5Gq+G15)
Type: cell-based
Design: expressed in transfected cells; host or cells: CHO cells
Conditions: for E′MAX / τ / EC50: Table 8; for RAi: Table 8, relative to carbachol; for Δlog(τ/KA): Table 8, to carbachol; for Kd: Table 8, read-out: pKA (converted)
Procedure: To determine level of cAMP, cells in suspension were pre-incubated for 1 h with 0.4 μM [^3H]adenine, washed, and incubated for 10 min in the presence of isobutylmethylxanthine and 10 μM forskolin. […] Incubation was ended by addition of 0.2 ml of 2.5 M HCl to the samples. Samples were applied to alumina columns (1.5 g of alumina per column), washed with 2 ml ammonium acetate (pH=7.0) and eluted from columns with 4 ml ammonium acetate and measured by liquid scintillation spectrometry. […] The incubation was stopped by addition of 0.5 ml of chloroform methanol HCl mixture (2:1:0.1). After separation of water and organic phases, 0.6 ml of water phase was applied to Dowex columns (1.5 g of Dowex per column), washed by 20 ml of 60 mM ammonium formate/5 mM sodium borate buffer and eluted from columns with 4 ml of 1M ammonium formate/0.1 formic acid buffer and measured by liquid scintillation spectrometry.
Measurements of the production of cAMP and inositol phosphates: Levels of second messengers cAMP and inositol phosphates were determined in radiochemical chromatography assays as described previously. To determine level of cAMP, cells in suspension were pre-incubated for 1 h with 0.4 μM [^3H]adenine, washed, and incubated for 10 min in the presence of isobutylmethylxanthine and 10 μM forskolin. […] Incubation was ended by addition of 0.2 ml of 2.5 M HCl to the samples. Samples were applied to alumina columns (1.5 g of alumina per column), washed with 2 ml ammonium acetate (pH=7.0) and eluted from columns with 4 ml ammonium acetate and measured by liquid scintillation spectrometry. […] For this purpose, new CHO cell lines stably expressing promiscuous G15 G-protein and M2 or M4 receptor were generated by transfection with pCMV/hygro vector and hygromycin selection. To determine the rate of formation of inositol phosphates IPX, suspended cells were pre-incubated with 0.1 μM [^3H]myo-inositol for 60 min, washed, and incubated with 10 mM LiCl for 15 min. […] The incubation was stopped by addition of 0.5 ml of chloroform methanol HCl mixture (2:1:0.1). After separation of water and organic phases, 0.6 ml of water phase was applied to Dowex columns (1.5 g of Dowex per column), washed by 20 ml of 60 mM ammonium formate/5 mM sodium borate buffer and eluted from columns with 4 ml of 1M ammonium formate/0.1 formic acid buffer and measured by liquid scintillation spectrometry.
For bi-phasic response, curves were inhibitory and stimulatory phase were fitted separately. Operational Model of Functional Agonism
[formula] where y is functional response at concentration of tested compound x, EMAX is maximal response of the system, KA is equilibrium dissociation constant and nH is slope factor. Eq. 5 was fitted to data from functional experiments. Eq. 5 was fitted to data by the two-step procedure described earlier. […] In the second step, Eq. 5 with EMAX fixed to the value determined in the first step was fitted to individual experimental data sets. Relative Intrinsic Activity

Row | SMILES | E′MAX | τ | RAi | Δlog(τ/KA) | EC50 | Kd
1 | O=C1CCCN1CC#CCN1CCCC1 [oxotremorine, reference compound] | 16 ± 1 fold over basal | 2.6 ± 0.3 | 4.12 ± 0.26 | −0.62 ± 0.07 | – | –
2 | C[N+](C)(C)CCOC(N)=O [carbachol, reference compound] | 17 ± 2 fold over basal | 4.0 ± 0.4 | – | 0 | – | –
3 | C1=CCN(Cc2cccs2)CC1.Cl [Compound 6A, 1-[(thiophen-2-yl)methyl]-1,2,3,6-tetrahydropyridin-1-ium chloride] | 1.19 ± 0.04 fold over basal | 0.009 ± 0.003 | 0.0025 ± 0.0008 | 2.60 ± 0.82 | 1580 nM | 1580 nM
4 | C[N+]1(Cc2cccs2)CC=CCC1.[I-] (stereo not shown) [Compound 7A, 1-methyl-1-[(thiophen-2-yl)methyl]-1,2,3,6-tetrahydropyridin-1-ium iodide] | 1.28 ± 0.05 fold over basal | 0.014 ± 0.003 | 0.0007 ± 0.0002 | 3.17 ± 0.88 | 7940 nM | 2000 nM
